Experimental data published in ChEMBL document CHEMBL3507680, “University of Dundee, Gates Library screen for HepG2 cell viability”.

assay: Human HepG2 cell viability assay in 384 well format; assay type: toxicity, cell-based; design: dose 125 nL, time 70.5 hour; concentration not given beside the values; details: HepG2 cells, read-out: Inhibition

| SMILES | cytotoxicity at 70.5 h [%] |
| --- | --- |
| O=C(Cc1cccc(F)c1F)N1CCOC(c2cccc(O)c2)C1 (centres undefined) | -2.65 |
| O=C(c1ccco1)N(c1ccc(F)cn1)C1CCOCC1 | 26.4 |
| CC(NS(C)(=O)=O)C(=O)Nc1ccc2oc(C3CC3)nc2c1 (centres undefined) | -3.24 |
| CS(=O)(=O)c1ccc(NCc2ccc(F)cc2)cn1 | -6.37 |
| O=C1NCCCCC1SCc1coc(-c2ccc(F)cc2)n1 (centres undefined) | 20.1 |
| O=C(c1ccncc1)N1CCCN(Cc2nnc(C3CC3)o2)CC1 | -2.96 |
| CCOC(C)c1nc(COc2nc(C)no2)cs1 (centres undefined) | -3.02 |
| COc1cccc(C(C)N2CCN(S(=O)(=O)c3ccccc3)CC2)c1 (centres undefined) | -2.4 |
| O=C(C1CCCS1)N1CCOc2cccc(F)c21 (centres undefined) | -3.7 |
| O=C(C1CCC1)N1CCOc2cccc(F)c21 | -9.1 |
| CCC1CCCN(S(=O)(=O)c2cnn(C)c2)C1 (centres undefined) | -0.41 |
| COc1cccc(C(=O)Nc2ccc(OCCC(N)=O)cc2)c1OC | -5.04 |
| CCOC(=O)NCC(=O)Nc1nc2ccccc2n1C(C)(C)C | 5.06 |
| Cc1ccc(C(=O)NCCS(=O)(=O)Cc2ccccc2)c(=O)[nH]1 | -9.89 |
| COc1ccccc1C1(CNc2cn[nH]c(=O)c2Cl)CC1 | -12.7 |
| COc1ccc(C)cc1C1(CNc2cncc(Cl)n2)CCOCC1 | -8.23 |
| COc1ccc(F)cc1Cn1nc(C(N)=O)ccc1=O | 6.09 |
| Cc1nc(C)n(CC2CCCN(c3ccnc(-c4ccccc4)n3)C2)n1 (centres undefined) | -10.2 |
| CCn1nnnc1-c1cccc(NC(=O)COC2CCCC2)c1 | 6.8 |
| CCn1nnnc1-c1cccc(NC(=O)CCc2cnn(C)c2)c1 | -2.12 |
| NS(=O)(=O)CCNC(=O)CCc1cc(Br)cs1 | 1.86 |
| Cc1cc(C)nc(NC2CCc3nc(C)nn3C2)n1 (centres undefined) | -5.94 |
| Cc1cc(N(C)C)nc(NC2CCc3nc(C)nn3C2)n1 (centres undefined) | 6.17 |
| Cc1ccc(C)c(C(O)Cn2cc(Cl)c(=O)[nH]c2=O)c1 (centres undefined) | 13.1 |

| SMILES | cytotoxicity at 70.5 h [%] |
| --- | --- |
| NC(=O)Nc1cccc(F)c1C(=O)NC1CCCC1 | -3.68 |
| CC(C)(C)c1ccc2c(c1)CCN2C(=O)c1[nH]c(=O)[nH]c(=O)c1N | -6.44 |
| CCOCc1ccc(NCc2cnc(N3CCN(C)CC3)nc2)cc1 | -3.75 |
| CCOc1ccc(NCc2cnc(N3CCN(C)CC3)nc2)cn1 | -1.43 |
| Cn1cc(S(=O)(=O)N2CCCC(Cn3cncn3)C2)cn1 (centres undefined) | -2.09 |
| Cc1ccc(F)cc1C(=O)NCc1ccc(C(=O)O)o1 | 7.02 |
| CCOc1ccc(NC(=O)c2cccc(OC)c2OC)cc1 | -1.48 |
| CC(OCC1CC1)C(=O)NCc1cccc(CN2CCN(C)CC2)c1 (centres undefined) | 5.66 |
| O=C(COC1CCCCC1)Nc1ccn(CCc2ccncc2)n1 | -7.83 |
| CCN(Cc1ccc(CN(C)C)cc1)C(=O)c1ccncc1O | -11.2 |
| CC1CCCCN1C(=O)Cn1cnc(C#N)n1 (centres undefined) | -6.77 |
| COc1cc(F)ccc1NC(=O)NCCNC(=O)OC(C)(C)C | -14 |
| O=C(NCCCn1cccn1)C1COCC(=O)N1Cc1ccccc1 (centres undefined) | -0.531 |
| CN(Cc1ccc2c(c1)OCO2)Cc1cscn1 | 10.1 |
| COCc1c(Br)cccc1NC(=O)CC(F)(F)F | -13.2 |
| CN(Cc1cscn1)Cc1cc2c(cc1Br)OCO2 | -4.04 |
| Cc1cc(C)n(-c2cccc(NC(=O)N3CCC[C@@H]3CO)c2)n1 | -16 |
| Cc1ccc(C)c(CC(=O)NC2CCCS(=O)(=O)C2)c1 (centres undefined) | 6.95 |
| Cc1ccc(C2CSCCN2CCS(C)(=O)=O)cc1 (centres undefined) | -12.2 |
| Cc1noc(C)c1C(C)NC(=O)N1CCC(NC(=O)c2ccsc2)CC1 (centres undefined) | -6.79 |
| C[C@@H]1CN(Cc2ccccc2F)CC(C(N)=O)O1 (some centres undefined) | -14.1 |
| Cc1oc(CNC(=O)Cc2ccc3ccccc3c2)cc1C(=O)O | 5.89 |
| CC(c1nc(C2CC2)no1)N1CCN(CCc2ccncc2)CC1 (centres undefined) | -12.6 |
| CC(C)c1noc(C(C)N2CCN(CCc3ccncc3)CC2)n1 (centres undefined) | -16.3 |

| SMILES | cytotoxicity at 70.5 h [%] |
| --- | --- |
| COC(=O)CCN(CC1CCCO1)C(=O)CCc1ccc(OC)cc1 (centres undefined) | -7.89 |
| CCOc1ccc(CC(=O)N(CCC(=O)OC)CC2CCCO2)cc1 (centres undefined) | -14.3 |
| C[C@@H]1CN(Cc2ccc(-c3ccncc3)cc2F)CC(C(N)=O)O1 (some centres undefined) | -0.906 |
| CC(O)(CNc1ccc(Cl)c(C#N)n1)c1ccccc1 (centres undefined) | 13.8 |
| CCOc1ncccc1CNS(=O)(=O)c1ccc2c(c1)CCC2 | 4.98 |
| CCOc1ncccc1CNS(=O)(=O)c1ccc2c(c1)CCO2 | -2.87 |
| CCOc1ncccc1CNS(=O)(=O)c1ccc2c(c1)CCCC(=O)N2 | -4.49 |
| CCn1ccnc1CN1CCN(C(C)C(=O)NCC(F)(F)F)CC1 (centres undefined) | 10 |
| CN1C(=O)CCc2cc(NS(=O)(=O)Cc3cccc(F)c3)ccc21 | -8.13 |
| CCN1CC(COC(=O)c2ccc(Br)cc2F)CC1=O (centres undefined) | -6.68 |
| CC(Nc1ccc2c(c1)CCC2)c1nc(C2CC2)no1 (centres undefined) | -3.74 |
| CCS(=O)(=O)CCN1CCN(C2CCC(C(C)C)CC2)CC1 (centres undefined) | 11.5 |
| O=C(NCC1(c2ccc(F)cc2)CCCC1)N1CCOC(CO)C1 (centres undefined) | 2.92 |
| CC(C)C1CCC(N2CCN(CCS(C)(=O)=O)CC2)CC1 (centres undefined) | -4.3 |
| CC(C)C1CCC(N2CCN(CCCS(C)(=O)=O)CC2)CC1 (centres undefined) | -3.77 |
| CS(=O)(=O)CCNC(=O)N1CC2(CCCC2)c2ccccc21 | 0.304 |
| O=C1CC2(CCSC2)C(=O)N1Cc1coc(-c2cccc(F)c2)n1 (centres undefined) | -2.41 |
| O=C1CC2(CCSC2)C(=O)N1Cc1coc(-c2ccccc2)n1 (centres undefined) | 2.52 |
| Cc1ocnc1C(=O)Nc1ccc(-c2nnc(N(C)C)o2)cc1 | -3.15 |
| NC(=O)c1ccc(NC(=O)c2ccncc2Cl)cn1 | -4.51 |
| CCc1cnccc1C(=O)Nc1ccc(C(N)=O)nc1 | -4.18 |
| Cc1cc(Br)ccc1CNC(=O)C1(O)CCSCC1 | 9.16 |
| Cc1csc(N(C)C(=O)C2CC(=O)N(c3ccccc3Cl)C2)n1 (centres undefined) | 4.48 |
| CN(C(=O)C1CC(=O)N(CCc2ccccc2)C1)c1nccs1 (centres undefined) | 16.6 |

| SMILES | cytotoxicity at 70.5 h [%] |
| --- | --- |
| CC(Cn1cccn1)NC(=O)C1=Cc2ccccc2OC1 (centres undefined) | -4.64 |
| COC(=O)C(CNC(=O)Nc1nncs1)Cc1ccc(F)cc1 (centres undefined) | -4.56 |
| COc1ccnc(N2CCc3ccc(OC(F)F)cc3C2)n1 | -2.84 |
| COc1ccc(Oc2ncccc2NC(=O)N2CCOC(C)C2)cc1 (centres undefined) | -5.19 |
| CCc1ccc(O)c(C(=O)N2CCN(CC(=O)N(CC)CC)CC2)c1 | 1.25 |
| CNC(=O)c1sccc1S(=O)(=O)Nc1ccc(C)cc1 | -1.86 |
| N#CCCN(Cc1cccnc1)C(=O)c1ccn(-c2ccccc2)n1 | 1.01 |
| CCC(=O)Nc1ccc(C(C)Nc2nc3c(cnn3C)c(=O)[nH]2)cc1 (centres undefined) | -5.84 |
| O=C(CN(Cc1cccs1)c1ccc(F)cc1)NC1CCOCC1 | -1.98 |
| O=C(c1ccc(Cl)cn1)N1CCC(COCc2ccccc2)C1 (centres undefined) | 15.8 |
| CC(C)(C)C(=O)N1CCC(COCc2ccccc2)C1 (centres undefined) | -3.49 |
| Cc1cc(CSCc2cc(C)on2)on1 | 12.2 |
| Cc1cc(CSc2ccccn2)on1 | -3.89 |
| O=C(c1c(F)cccc1Br)N1CCCOCC1 | 3.06 |
| CC(C)(C)c1nc2cc(NC(=O)Cn3ccc(=O)[nH]c3=O)ccc2o1 | -13.2 |
| CCC(CC)NC(=O)c1cccnc1-n1cccn1 | 18 |
| CN(C)c1ccc(NC(=O)C2CN(Cc3ccccc3)CCO2)cn1 (centres undefined) | -3.21 |
| O=C(O)c1ccn(-c2ccccc2NS(=O)(=O)c2cccc(Cl)c2F)n1 | -7.81 |
| CCCC(NC(=O)c1cscc1C)c1nnn[nH]1 (centres undefined) | -2.41 |
| CC(CNC(=O)N1CCN(Cc2ccon2)CC1)N(C)C1CC1 (centres undefined) | -1.74 |
| COCCN1CCCC1c1cccc2c1OCCO2 (centres undefined) | 7.8 |
| CC(CC(=O)NCCCn1cccn1)c1cccnc1 (centres undefined) | -6.56 |
| Cc1cccc(NC(=O)[C@@H]2CCCN2Cc2cnc3ccccn23)n1 | 1.07 |
| O=C(NCCCn1cccn1)N1CCCC1c1cccs1 (centres undefined) | -7.95 |

| SMILES | cytotoxicity at 70.5 h [%] |
| --- | --- |
| Cc1cc(C)n(CC2CCCCN2CC(=O)Nc2ccncc2)n1 (centres undefined) | -0.378 |
| Cc1cc(C)n(CC2CCCN2CC(=O)Nc2nnc(C)s2)n1 (centres undefined) | 0.949 |
| CCC(Nc1nc(C(F)(F)F)nc2ccccc12)C(=O)O (centres undefined) | 2.5 |
| Cc1ccc(S(=O)(=O)NCCNC(=O)c2ccoc2)cc1C | -7.77 |
| CC(C)(C)OC(=O)NC(C)(C)c1noc(CSc2ccccn2)n1 | -1.21 |
| CCCc1ccc(S(=O)(=O)NCCNC(=O)c2ccoc2)cc1 | -6.96 |
| O=C(NCCNS(=O)(=O)c1ccc(C(F)(F)F)cc1)c1ccoc1 | -6.84 |
| CCS(=O)(=O)c1ccc(N2CCC(NC(=O)C(C)SC)CC2)cc1 (centres undefined) | -6.83 |
| Cn1c(C(=O)N2CCC(CC(N)=O)CC2)c(Cl)c2ccccc21 | 28.2 |
| CC(=O)N1CCN(C(=O)c2c(Cl)c3ccccc3n2C)CC1 | -7.65 |
| COc1cccc(S(=O)(=O)CCN2CCN(CC(F)F)CC2)c1 | 1.26 |
| Cc1ccc(NC(=O)Cc2c(C)nc3c(c2C)c(=O)[nH]n3C)cc1F | -4.3 |
| c1nc(N2CCCCC2Cn2cncn2)c2sccc2n1 (centres undefined) | -5.69 |
| Cc1cnn(CC2CCCN2c2ncnc3sccc23)c1 (centres undefined) | 1.15 |
| O=C(OCc1ccccc1)c1cccc(NC(=O)C2COCCO2)c1 (centres undefined) | 1.04 |
| CC(C)NC(=O)NCCCc1cccc(F)c1 | 0.142 |
| Cc1nn(CCO)c(C)c1CNC1CCCCc2ccccc21 (centres undefined) | 3.84 |
| CCc1nc(NS(=O)(=O)c2cc(C)ccc2Br)no1 | 1.48 |
| CCOC(=O)N1CCN(C(=O)C2CC(=O)N(c3ccccc3Br)C2)CC1 (centres undefined) | -2.99 |
| Cc1nc(C)n(CC2CCCN2CC(=O)Nc2nncs2)n1 (centres undefined) | -0.801 |
| Cc1ccc(S(=O)(=O)NCCc2cccnc2)cc1C | -3.85 |
| COc1ccc(S(=O)(=O)NCCC(=O)NCc2ccoc2)cc1OC | -11.3 |
| Cc1ccc2c(c1)CCC2NCc1c(C)nn(CCO)c1C (centres undefined) | -6.83 |
